In general, melting point refers to the temperature, or range, at which the solid turns liquid. The compound `COc1cccc(-c2nc(C3(C)CC(c4ccc(OC)c(OC5CCCC5)c4)=NO3)no2)c1` (centres unmarked) [Compound No. 74, 3-[3-(3-Cyclopentyloxy-4-methoxyphenyl)-5-methyl-4,5-dihydro-isoxazol-5-yl]-5-(3-methoxy-phenyl)-[1,2,4]oxadiazole] came in with a melting point of 121 to 122 °C.

In turn, `COc1ccc(C2=NOC(C)(c3noc(C4CC4)n3)C2)cc1OC1CCCC1` (centres unmarked) [Compound No. 60, 3-[3-(3-Cyclopentyloxy-4-methoxyphenyl)-5-methyl-4,5-dihydro-isoxazol-5-yl]-5-cyclopropyl-[1,2,4]oxadiazole] came in with a melting point of 105 to 106 °C.

Turning to `COc1ccc(C2=NOC(C)(c3noc(-c4ccccc4Cl)n3)C2)cc1OC1CCCC1` (centres unmarked) [Compound No. 76, 5-(2-Chlorophenyl)-3-[3-(3-cyclopentyloxy-4-methoxyphenyl)-5-methyl-4,5-dihydro-isoxazol-5-yl]-[1,2,4]oxadiazole], the melting point was found to be 122 °C.

In the case of `CCOc1ccccc1-c1nc(C2(C)CC(c3ccc(OC)c(OC4CCCC4)c3)=NO2)no1` (centres unmarked) [Compound No. 59, 3-[3-(3-Cyclopentyloxy-4-methoxyphenyl)-5-methyl-4,5-dihydro-isoxazol-5-yl]-5-(2-ethoxy-phenyl)-[1,2,4]oxadiazole], the melting point lay within 138.5 to 139 °C.

Regarding `COc1ccc(C2=NOC(C)(c3noc(-c4ccc(Cl)c(Cl)c4)n3)C2)cc1OC1CCCC1` (centres unmarked) [Compound No. 79, 3-[3-(3-Cyclopentyloxy-4-methoxyphenyl)-5-methyl-4,5-dihydro-isoxazol-5-yl]-5-(3,4-dichloro-phenyl)-[1,2,4]oxadiazole], the melting point was in the range of 113.5 to 114.9 °C.

Source of the values: patent publication US20070259874A1, “Phosphodiesterase Inhibitors” (priority 2003, published 2007).
